US11780832B2, “Lactivicin compounds, their preparation and use as antibacterial agents” (priority 2021, dated 2023)
In brackets after ≈: the same amount, converted by molar mass.

Columns and labels:
Assay type in all cases: cell-based
[1] = test system: Klebsiella pneumoniae CMY-DHA; assay: MIC against CMY-DHA producing strains, compound alone; conditions: row r32
In short: (§1)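 Genotypically characterized isolates tested by CLSI broth microdilution; 5×10^5 CFU/mL final inoculum; compound alone, final concentrations 16-0.0125 μg/mL in 2-fold steps.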

[2] = test system: Proteus mirabilis CMY-DHA; assay: as above; conditions: row r36
In short: as §1

Escherichia coli CMY-DHA [3] = assay: as above
In short: as §1

[4] = test system: Escherichia coli ATCC 25922; assay: MIC, CLSI broth microdilution; conditions: ATCC25922
In short: (§2)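 Genotyped isolates from ATCC or clinical sources were subcultured twice from −80 °C skim-milk stocks, then tested by CLSI broth microdilution. Compounds were serially diluted 2-fold to a final 16-0.0125 μg/mL, with a final inoculum of 5×10^5 CFU/mL.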

[5] = test system: Pseudomonas aeruginosa OprD negative; assay: MIC, CLSI broth microdilution
In short: (§3)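 Broth microdilution following CLSI guidance was used to obtain MICs. Bacteria, recovered through two passages from skim-milk stocks held at −80 °C, were exposed to doubling dilutions of compound (final 16-0.0125 μg/mL).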

[6] = test system: Serratia marcescens SME-2; assay: MIC, CLSI broth microdilution; conditions: SME2
In short: as §2

[7] = test system: Acinetobacter baumannii ATCC 19606; assay: MIC, CLSI broth microdilution; conditions: ATCC19606
In short: as §2

[8] = test system: Klebsiella pneumoniae SHV-12; assay: MIC, CLSI broth microdilution; conditions: SHV12, SHV-12, read-out: MIC
In short: as §2

Escherichia coli CMY-2 = assay: MIC, CLSI broth microdilution; conditions: CMY2
In short: as §2

[9] = test system: Klebsiella aerogenes VIM-1, SHV-12; assay: MIC, CLSI broth microdilution
In short: as §2

[10] = test system: Klebsiella pneumoniae KPC-2; assay: MIC, CLSI broth microdilution; conditions: KPC2
In short: as §2

[11] = test system: Klebsiella pneumoniae OXA-48, SHV-1; assay: MIC, CLSI broth microdilution
In short: as §3

[12] = test system: Serratia marcescens AmpC overexpressed; assay: MIC, CLSI broth microdilution
In short: as §3

[13] = test system: Enterobacter cloacae species complex NDM-1; assay: MIC, CLSI broth microdilution
In short: as §2

[14] = test system: Pseudomonas aeruginosa AmpC overexpressed; assay: MIC, CLSI broth microdilution
In short: as §3

Escherichia coli SHV-12 = assay: MIC, CLSI broth microdilution; conditions: SHV12
In short: as §2

[15] = test system: Klebsiella pneumoniae OXA-163, OXA-1_OXA-30, SHV-1, TEM-1; assay: MIC, CLSI broth microdilution
In short: as §3

[16] = test system: Pseudomonas aeruginosa ATCC 27853; assay: MIC, CLSI broth microdilution; conditions: ATCC27853
In short: as §2

[17] = test system: Escherichia coli CTX-M-15; assay: MIC, CLSI broth microdilution; conditions: CTXM15
In short: as §2

[18] = test system: Enterobacter cloacae species complex Elevated AmpC; assay: Synergistic activity: MIC in the presence of Avibactam
In short: (§4)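 MIC read by CLSI broth microdilution. Isolates were passaged twice from −80° C stocks, then inoculated at a final 5×10^5 CFU/mL into 2-fold compound dilutions (final 16-0.0125 μg/mL) with avibactam present at a fixed concentration or fixed ratio. Synergy is the drop in MIC relative to compound alone.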

[19] = test system: Klebsiella pneumoniae CMY-DHA; assay: as above; conditions: row r32, in the presence of Avibactam @ 4 μg/mL
In short: as §4

[20] = test system: Proteus mirabilis CMY-DHA; assay: as above; conditions: row r36, in the presence of Avibactam @ 4 μg/mL
In short: as §4

Escherichia coli CMY-DHA [21] = assay: as above
In short: as §4

[22] = test system: Citrobacter freundii species complex Elevated AmpC; assay: as above; conditions: row r16, in the presence of Avibactam @ 4 μg/mL
In short: as §4

[23] = test system: Escherichia coli Elevated AmpC; assay: as above
In short: as §4

Question: With `CC(C)(O/N=C(\C(=O)N[C@@H]1C(=O)N2C(C(=O)[O-])=C(C[n+]3ccccc3)CS[C@H]12)c1csc(N)n1)C(=O)O` [Ceftazidime, ceftazidime, reference compound] as the compound, how does the MIC [1] read?
Answer: Its MIC is 16 µg/mL (≈ 29.3 µM).

Question: What about the MIC [2] of the same compound?
Answer: The MIC was 16 µg/mL (≈ 29.3 µM).

Question: What about the MIC (Escherichia coli CMY-DHA [3]; strain of row r26) of the same compound?
Answer: The MIC was 32 µg/mL (≈ 58.5 µM).

Question: What about the MIC (Escherichia coli CMY-DHA [3]; strain of row r27) of the same compound?
Answer: Its MIC is 32 µg/mL (≈ 58.5 µM).

Question: And the MIC (Escherichia coli CMY-DHA [3]; strain of row r28)?
Answer: Its MIC is 8 µg/mL (≈ 14.6 µM).

Question: And the MIC (Escherichia coli CMY-DHA [3]; strain of row r29)?
Answer: Its MIC is 32 µg/mL (≈ 58.5 µM).

Question: And the MIC (Escherichia coli CMY-DHA [3]; strain of row r30)?
Answer: Its MIC is 4 µg/mL (≈ 7.32 µM).

Question: And the MIC (Escherichia coli CMY-DHA [3]; strain of row r31)?
Answer: Its MIC is 32 µg/mL (≈ 58.5 µM).

Question: And the MIC (Escherichia coli CMY-DHA [3]; strain of row r34)?
Answer: Its MIC is > 32 µg/mL.

Question: What about the MIC (Escherichia coli CMY-DHA [3]; strain of row r35) of the same compound?
Answer: Its MIC is > 32 µg/mL.

Question: And the MIC [4]?
Answer: Its MIC is 0.25 µg/mL (≈ 0.457 µM).

Question: And the MIC [5]?
Answer: The MIC was 2 µg/mL (≈ 3.66 µM).

Question: What about the MIC [6] of the same compound?
Answer: Its MIC is 0.25 µg/mL (≈ 0.457 µM).

Question: What about the MIC [7] of the same compound?
Answer: The MIC was 8 µg/mL (≈ 14.6 µM).

Question: What about the MIC [8] of the same compound?
Answer: Its MIC is > 32 µg/mL.

Question: And the MIC (Escherichia coli CMY-2)?
Answer: The MIC was > 32 µg/mL.

Question: And the MIC [9]?
Answer: Its MIC is > 32 µg/mL.

Question: What about the MIC [10] of the same compound?
Answer: The MIC was > 32 µg/mL.

Question: And the MIC [11]?
Answer: Its MIC is 0.5 µg/mL (≈ 0.915 µM).

Question: What about the MIC [12] of the same compound?
Answer: The MIC was 0.5 µg/mL (≈ 0.915 µM).

Question: And the MIC [13]?
Answer: Its MIC is > 32 µg/mL.

Question: What about the MIC [14] of the same compound?
Answer: Its MIC is 8 µg/mL (≈ 14.6 µM).

Question: What about the MIC (Escherichia coli SHV-12) of the same compound?
Answer: The MIC was 32 µg/mL (≈ 58.5 µM).

Question: And the MIC [15]?
Answer: The MIC was > 32 µg/mL.

Question: What about the MIC [16] of the same compound?
Answer: The MIC was 1 µg/mL (≈ 1.83 µM).

Question: What about the MIC [17] of the same compound?
Answer: The MIC was 4 µg/mL (≈ 7.32 µM).

Question: And the MIC ([18]; in the presence of Avibactam @ 4 μg/mL)?
Answer: The MIC was 0.25 µg/mL.

Question: And the MIC ([18]; strain of row r7, in the presence of Avibactam @ 4 μg/mL)?
Answer: Its MIC is 0.5 µg/mL.

Question: What about the MIC ([18]; strain of row r20, in the presence of Avibactam @ 4 μg/mL) of the same compound?
Answer: Its MIC is 0.03 µg/mL.

Question: What about the MIC [19] of the same compound?
Answer: Its MIC is 0.12 µg/mL.

Question: And the MIC [20]?
Answer: The MIC was 0.12 µg/mL.

Question: What about the MIC (Escherichia coli CMY-DHA [21]; strain of row r26, in the presence of Avibactam @ 4 μg/mL) of the same compound?
Answer: The MIC was 0.5 µg/mL.

Question: And the MIC (Escherichia coli CMY-DHA [21]; strain of row r27, in the presence of Avibactam @ 4 μg/mL)?
Answer: Its MIC is 0.5 µg/mL.

Question: And the MIC (Escherichia coli CMY-DHA [21]; strain of row r28, in the presence of Avibactam @ 4 μg/mL)?
Answer: Its MIC is 0.06 µg/mL.

Question: What about the MIC (Escherichia coli CMY-DHA [21]; strain of row r29, in the presence of Avibactam @ 4 μg/mL) of the same compound?
Answer: Its MIC is 0.12 µg/mL.

Question: And the MIC (Escherichia coli CMY-DHA [21]; strain of row r30, in the presence of Avibactam @ 4 μg/mL)?
Answer: Its MIC is “<=0.015 μg/mL”.

Question: What about the MIC (Escherichia coli CMY-DHA [21]; strain of row r31, in the presence of Avibactam @ 4 μg/mL) of the same compound?
Answer: The MIC was 0.12 µg/mL.

Question: And the MIC (Escherichia coli CMY-DHA [21]; strain of row r34, in the presence of Avibactam @ 4 μg/mL)?
Answer: The MIC was 0.5 µg/mL.

Question: What about the MIC (Escherichia coli CMY-DHA [21]; strain of row r35, in the presence of Avibactam @ 4 μg/mL) of the same compound?
Answer: The MIC was 0.25 µg/mL.

Question: And the MIC [22]?
Answer: The MIC was 0.25 µg/mL.

Question: And the MIC ([23]; strain of row r10, in the presence of Avibactam @ 4 μg/mL)?
Answer: The MIC was 0.12 µg/mL.

Question: What about the MIC ([23]; strain of row r11, in the presence of Avibactam @ 4 μg/mL) of the same compound?
Answer: The MIC was 0.06 µg/mL.

Question: And the MIC ([23]; strain of row r12, in the presence of Avibactam @ 4 μg/mL)?
Answer: Its MIC is 0.12 µg/mL.

Question: What about the MIC ([23]; strain of row r13, in the presence of Avibactam @ 4 μg/mL) of the same compound?
Answer: Its MIC is 0.12 µg/mL.

Question: What about the MIC ([23]; strain of row r14, in the presence of Avibactam @ 4 μg/mL) of the same compound?
Answer: The MIC was 0.12 µg/mL.

Question: And the MIC ([23]; strain of row r15, in the presence of Avibactam @ 4 μg/mL)?
Answer: Its MIC is 0.5 µg/mL.
